Where two headings read alike, the source gives them in different places.
How the values were obtained:
HIV-1 (IIIB isolate) = test: Anti-HIV activity in H9 lymphocytes (p24 antigen ELISA); type: cell-based; settings: H-9 lymphocytes; for Anti-HIV Activity EC50: HIV-1 IIIB, p24 ELISA, day 5, average of at least two experiments; for Therapeutic Index (TI = IC50/EC50): ratio of IC50 to EC50; for anti-viral activity (in words): summary of Table 1
Description: (§1) The biological evaluation of HIV-1 inhibition was carried out according to established protocols, (Kashiwada, Y., et al., J. Med. Chem. 39:1016-1017 (1996); Hashimoto, F., et al., Bioorg. & Med. Chem. 5:2133-2143 (1997)). The T cell line, H9, was maintained in continuous culture log-phase growth in complete medium (RPMI 1640 with 10% fetal calf serum supplemented with L-glutamine at 5% CO2 and 37° C.). Test samples were first dissolved in dimethyl sulfoxide at a concentration of 10 mg/ml to generate master stocks with dilutions made into tissue culture media to generate working stocks. The following drug concentrations were used routinely for screening: 50, 5, and 0.5 μg/mL. For agents found to be active, additional dilutions were prepared for subsequent testing so that an accurate EC50 value (defined below) could be determined. As the test samples were being prepared, an aliquot of the H9 cell line was infected with HIV-1 (IIIB isolate) while a second aliquot was mock-infected with complete medium. […] An amount of virus equal to approximately 6.25×10^4 TCID50 was added to the first aliquot of 3.5×10^6H9 cells. The second aliquot received tissue culture medium only, and these mock-infected cells were used for toxicity determinations (IC50 defined below). After a 4 h incubation at 37° C. and 5% CO2, both cell populations were washed three times with fresh medium and then added to the appropriate wells of a 96-well plate containing various concentrations of the test drug or tissue culture medium (positive infected control/negative drug control). In addition, AZT was assayed during each experiment as a positive drug control. The plates were incubated at 37° C. and 5% CO2 for 5 days. Cell-free culture supernatants were collected on Day 5 for use in a p24 antigen-capture ELISA assay to determine virus replication. p24 is the core protein of HIV and therefore is an indirect measure of the amount of virus present in the culture supernatants. Toxicity was determined using a viable dye method (XTT) on mock-infected H9 cells that were treated with test sample, AZT or no drug. If a test sample suppressed viral replication and was toxic to less than 50% of the cells, its effects were reported in the following terms: IC50, the concentration of test sample which was toxic to 50% of the mock-infected H9 cells; EC50, the concentration of the test sample which was able to suppress HIV replication by 50%; and Therapeutic Index (TI), the ratio of IC50 to EC50.
(§2) Compounds of the present invention were assayed for anti-HIV activity according to the following assay procedures. The T cell line, H9, and the promonocytic cell line, U937, were maintained separately in continuous culture with complete medium (RPMI 1640 with 10% fetal calf serum) at 5% CO2 and 37° C. The cell lines were used in experiments only when in the logarithmic phase of growth, whereas uninfected peripheral blood mononuclear cells (PBMCs) were first stimulated with PHA (1 μg/mL) for three days. All cell targets were incubated with HIV-1 (IIIB isolate, 1×10^6 TCID50/mL) for one hour at 37° C. and 5% CO2. The cell lines and PBMCs were washed thoroughly to remove unadsorbed virions and resuspended at 4×10^5 cells/mL in complete medium or complete medium with 10% v/v interleukin 2 (IL-2), respectively. […] aliquots were placed into wells of 96-well tissue culture plates containing an equal volume of test compounds (diluted in the appropriate culture medium). The toxicity of each compound was assessed by determining the viability of compound-exposed uninfected cells after five days at 37° C. and 5% CO2. A p24 antigen ELISA assay was used to determine the level of virus released in the medium of the HIV-infected cultures. The p24 antigen assay used a HIV-1 anti-p24 specific monoclonal antibody as the capture antibody coated onto 96-well plates. […]

mock-infected H9 cells = test: Cytotoxicity in mock-infected (uninfected) H9 cells; type: cell-based
Description: as §1, §2

Anti-HIV Activity EC50 (HIV-1 (IIIB isolate)) [µg/mL] | SMILES | Therapeutic Index (TI = IC50/EC50) (HIV-1 (IIIB isolate)) | Cytotoxicity IC50 (mock-infected H9 cells) [µg/mL] | anti-viral activity (in words) (HIV-1 (IIIB isolate)) | Cytotoxicity IC50 (mock-infected H9 cells; uninfected H9 cells, five days, average of at least two experiments) [µg/mL]
0.0854 | CC1(C)Oc2ccc3cc(CBr)c(=O)oc3c2[C@@H](OC(=O)[C@@]23CC[C@@](C)(C(=O)O2)C3(C)C)[C@H]1OC(=O)[C@@]12CC[C@@](C)(C(=O)O1)C2(C)C (relative stereo) [Compound 1, (3′R,4′R)-3′,4′-Di-O-(S)-(−)-camphanoyl-3-bromomethyl-(+)-cis-khellactone] | 40 | 3.38 | – | –
0.000119 | CC1(C)Oc2ccc3cc(C(Br)Br)c(=O)oc3c2[C@@H](OC(=O)[C@@]23CCC(C)(C(=O)O2)C3(C)C)[C@H]1OC(=O)[C@@]12CCC(C)(C(=O)O1)C2(C)C (relative stereo) [Compound 2, (3′R,4′R)-3′,4′-Di-O-(S)-(−)-camphanoyl-3-dibromomethyl-(+)-cis-khellactone] | 26,890 | 3.20 | most potent | –
0.000192 | Cc1c(CBr)c(=O)oc2c3c(ccc12)OC(C)(C)[C@H](OC(=O)[C@@]12CC[C@@](C)(C(=O)O1)C2(C)C)[C@@H]3OC(=O)[C@@]12CC[C@@](C)(C(=O)O1)C2(C)C (relative stereo) [Compound 3, (3′R,4′R)-3′,4′-Di-O-(S)-(−)-camphanoyl-3-bromomethyl-4-methyl-(+)-cis-khellactone] | 101,000 | 19.4 | most potent | –
0.0176 | CC1(C)Oc2c(CBr)cc3ccc(=O)oc3c2[C@@H](OC(=O)[C@@]23CCC(C)(C(=O)O2)C3(C)C)[C@H]1OC(=O)[C@@]12CCC(C)(C(=O)O1)C2(C)C (relative stereo) [Compound 4, (3′R,4′R)-3′,4′-Di-O-(S)-(−)-camphanoyl-6-bromomethyl-(+)-cis-khellactone] | 113 | 1.99 | – | –
0.0215 | Cc1cc(=O)oc2c3c(c(C(Br)Br)cc12)OC(C)(C)[C@H](OC(=O)[C@@]12CCC(C)(C(=O)O1)C2(C)C)[C@@H]3OC(=O)[C@@]12CCC(C)(C(=O)O1)C2(C)C (relative stereo) [Compound 5, (3′R,4′R)-3′,4′-Di-O-(S)-(−)-camphanoyl-6-dibromomethyl-4-methyl-(+)-cis-khellactone] | 81.8 | 1.76 | – | –
0.025 | Cc1cc(=O)oc2c3c(c(CBr)cc12)OC(C)(C)[C@H](OC(=O)[C@@]12CC[C@@](C)(C(=O)O1)C2(C)C)[C@@H]3OC(=O)[C@@]12CC[C@@](C)(C(=O)O1)C2(C)C (relative stereo) [Compound 6, (3′R,4′R)-3′,4′-Di-O-(S)-(−)-camphanoyl-6-bromomethyl-4-methyl-(+)-cis-khellactone] | 1,000 | 25.00 | – | –
0.000188 | CC1(C)Oc2ccc3cc(CO)c(=O)oc3c2[C@@H](OC(=O)[C@@]23CCC(C)(C(=O)O2)C3(C)C)[C@H]1OC(=O)[C@@]12CCC(C)(C(=O)O1)C2(C)C (relative stereo) [Compound 10, (3′R,4′R)-3′,4′-Di-O-(S)-(−)-camphanoyl-3-hydroxymethyl-(+)-cis-khellactone] | 188,032 | 35.35 | most potent | –
0.000625 | Cc1cc(=O)oc2c3c(c(CO)cc12)OC(C)(C)[C@H](OC(=O)[C@@]12CCC(C)(C(=O)O1)C2(C)C)[C@@H]3OC(=O)[C@@]12CCC(C)(C(=O)O1)C2(C)C (relative stereo) [Compound 12, (3′R,4′R)-3′,4′-Di-O-(S)-(−)-camphanoyl-6-hydroxymethyl-4-methyl-(+)-cis-khellactone] | 30,900 | 19.3 | most potent | –
0.39 | CC1(C)Oc2ccc3cc(CN)c(=O)oc3c2[C@@H](OC(=O)[C@@]23CC[C@@](C)(C(=O)O2)C3(C)C)[C@H]1OC(=O)[C@@]12CC[C@@](C)(C(=O)O1)C2(C)C (relative stereo) [Compound 14, (3′R,4′R)-3′,4′-Di-O-(S)-(−)-camphanoyl-3-aminomethyl-(+)-cis-khellactone] | – | 32.81 | – | –
0.001 | Cc1cc(=O)oc2c3c(c(CN)cc12)OC(C)(C)[C@H](OC(=O)[C@@]12CC[C@@](C)(C(=O)O1)C2(C)C)[C@@H]3OC(=O)[C@@]12CC[C@@](C)(C(=O)O1)C2(C)C (relative stereo) [Compound 15, (3′R,4′R)-3′,4′-di-O-(S)-(−)-camphanoyl-6-aminomethyl-4-methyl-(+)-cis-khellactone] | 24,100 | 24.1 | most potent | –
0.69 | CCN(CC)Cc1cc2ccc3c(c2oc1=O)[C@@H](OC(=O)[C@@]12CC[C@@](C)(C(=O)O1)C2(C)C)[C@@H](OC(=O)[C@@]12CC[C@@](C)(C(=O)O1)C2(C)C)C(C)(C)O3 (relative stereo) [Compound 16, (3′R,4′R)-3′,4′-Di-O-(S)-(−)-camphanoyl-3-diethylaminomethyl-(+)-cis-khellactone] | 62 | 43.01 | – | –

SMILES | Anti-HIV Activity EC50 (HIV-1 (IIIB isolate)) [µg/mL] | Therapeutic Index (TI = IC50/EC50) (HIV-1 (IIIB isolate)) | Cytotoxicity IC50 (mock-infected H9 cells) [µg/mL] | anti-viral activity (in words) (HIV-1 (IIIB isolate)) | Cytotoxicity IC50 (mock-infected H9 cells; uninfected H9 cells, five days, average of at least two experiments) [µg/mL]
CC(=O)OCc1cc2ccc3c(c2oc1=O)[C@@H](OC(=O)[C@@]12CCC(C)(C(=O)O1)C2(C)C)[C@@H](OC(=O)[C@@]12CCC(C)(C(=O)O1)C2(C)C)C(C)(C)O3 (relative stereo) [Compound 7, (3′R,4′R)-3′,4′-Di-O-(S)-(−)-camphanoyl-3-acetoxymethyl-(+)-cis-khellactone] | 0.00103 | 3,243 | 3.34 | most potent | –
CC(=O)OCc1c(C)c2ccc3c(c2oc1=O)[C@@H](OC(=O)[C@@]12CC[C@@](C)(C(=O)O1)C2(C)C)[C@@H](OC(=O)[C@@]12CC[C@@](C)(C(=O)O1)C2(C)C)C(C)(C)O3 (relative stereo) [Compound 8, (3′R,4′R)-3′,4′-Di-O-(S)-(−)-camphanoyl-3-acetoxymethyl-4-methyl-(+)-cis-khellactone] | 0.00012 | 157,000 | 18.80 | most potent | –
CC(=O)OCc1cc2c(C)cc(=O)oc2c2c1OC(C)(C)[C@H](OC(=O)[C@@]13CCC(C)(C(=O)O1)C3(C)C)[C@@H]2OC(=O)[C@@]12CCC(C)(C(=O)O1)C2(C)C (relative stereo) [Compound 9, (3′R,4′R)-3′,4′-Di-O-(S)-(−)-camphanoyl-6-acetoxymethyl-4-methyl-(+)-cis-khellactone] | 0.275 | 78.9 | 21.70 | – | –
COP(=O)(OC)OCc1cc2c(C)cc(=O)oc2c2c1OC(C)(C)[C@H](OC(=O)[C@@]13CCC(C)(C(=O)O1)C3(C)C)[C@@H]2OC(=O)[C@@]12CCC(C)(C(=O)O1)C2(C)C (relative stereo) [Compound 13, (3′R,4′R)-3′,4′-Di-O-(S)-(−)-camphanoyl-6-(dimethylphosphate)methyl-4-methyl-(+)-cis-khellactone] | 0.504 | 3.79 | – | – | 1.91

— US6768007B2, “Substituted 3′,4′-di-O-camphanoyl-(+)-cis-khellactone analogs, compositions thereof, and methods for using thereof” (Panacos Pharmaceuticals, Inc., priority 2001, dated 2004)
